Source: patent publication US3966732A, “Nitroimidazolyl pyrimidines” (Schering Aktiengesellschaft, priority 1972, dated 1976)
Converted amounts (≈) assume the structure as drawn.

Assays:
Trichomonas vaginalis = experiment: Minimum inhibitory concentration against Trichomonas vaginalis (own test); format: cell-based; conditions: comparison with metronidazole
trichomonads [1] = conditions: Lancini et al.; cited from earlier work
trichomonads [2] = conditions: Grunberg and Titsworth; cited from earlier work
[3] = Grunberg and Titsworth; cited from earlier work

| MIC (Trichomonas vaginalis) [µg/mL] | SMILES | other results |
| --- | --- | --- |
| 0.4 (≈ 1.72 µM) | Cc1cc(C)nc(-c2ncc([N+](=O)[O-])n2C)n1 [4,6-Dimethyl-2-(5-nitro-1-methyl-2-imidazolyl)-pyrimidine] | – |
| 0.2 (≈ 0.563 µM) | Cn1c([N+](=O)[O-])cnc1-c1nc(-c2cccs2)cc(C(F)(F)F)n1 [4-Trifluoromethyl-2-(5-nitro-1-methyl-2-imidazolyl)-6-(2-thienyl)-pyrimidin] | – |
| 0.2 (≈ 0.677 µM) | Cc1cc(-c2ccccc2)nc(-c2ncc([N+](=O)[O-])n2C)n1 [4-Methyl-6-phenyl-2-(5-nitro-1-methyl-2-imidazolyl)pyrimidine] | – |
| – | O=[N+]([O-])c1ncc[nH]1 [azomycin, 2-nitroimidazole] | effectiveness in vitro compared with metronidazole (trichomonads [1]): no more effective in vitro than metronidazole; ED50 value (in words, versus metronidazole) (trichomonads [2]): considerably less favorable; LD50 value (in words, versus metronidazole) [3]: considerably less favorable |
| 0.1 (≈ 0.311 µM) | Cc1nc(-c2ncc([N+](=O)[O-])n2C)nc2c1CCc1ccccc1-2 [2-(5-Nitro-1-methyl-2-imidazolyl)-4-methyl-5,6-dihydrobenzo[h]quinazoline] | – |
| 1.6 (≈ 9.35 µM) | Cc1ncc([N+](=O)[O-])n1CCO [Metronidazole, 5-nitro-2-methyl-1-(2-hydroxyethyl)-imidazole] | – |
